According to patent US12257237B2 (priority 2017, dated 2025):
Several values for one entry are separate records, joined by “and”; a condition that tells them apart may be missing. Identical values can stand only once.

Assay: Drug tolerability (body weight) in TC-71 Ewing sarcoma xenograft model
Type: in vivo, Athymic nude mice
Details: for BWL %: negative = loss vs day 9; for Mouse body weight, individual mice: 80 mg/kg
Protocol: Experiments were performed with female Athymic nude mice, 9-10 weeks old obtained from Harlan Laboratories (Udine, Italy). They were maintained under Specific Pathogen Free conditions with constant temperature and humidity, according to the institutional guidelines.
Tumour growth mice was monitored two/three times a week (depending on tumour growth rate, to avoid unnecessary stress to the animals) by Vernier caliper. Mice were sacrificed when tumour reached a mean weight of 2±0.5 gr. The antitumour activity will be expressed as T/C %, where T and C were the mean tumour weight of treated and control groups, respectively. Mice were monitored daily and weighted at least two times a week. Tolerability was evaluated on the basis of body weight loss (BWL) and clinical observation.

[1] = EDO60: EDO-S101 60 mg/kg, day 46 from tumour inoculum
[2] = EDO60: EDO-S101 60 mg/kg, day 49 from tumour inoculum
[3] = EDO60: EDO-S101 60 mg/kg, day 53 from tumour inoculum
[4] = EDO60: EDO-S101 60 mg/kg, day 56 from tumour inoculum
[5] = EDO80: EDO-S101 80 mg/kg, day 9 from tumour inoculum (treatment start)
[6] = EDO80: EDO-S101 80 mg/kg, day 10 from tumour inoculum
[7] = EDO80: EDO-S101 80 mg/kg, day 11 from tumour inoculum
[8] = EDO80: EDO-S101 80 mg/kg, day 14 from tumour inoculum
[9] = EDO80: EDO-S101 80 mg/kg, day 16 from tumour inoculum
[10] = EDO80: EDO-S101 80 mg/kg, day 18 from tumour inoculum
[11] = EDO80: EDO-S101 80 mg/kg, day 21 from tumour inoculum
[12] = EDO80: EDO-S101 80 mg/kg, day 23 from tumour inoculum
[13] = EDO80: EDO-S101 80 mg/kg, day 25 from tumour inoculum
[14] = EDO80: EDO-S101 80 mg/kg, day 28 from tumour inoculum
[15] = EDO80: EDO-S101 80 mg/kg, day 30 from tumour inoculum
[16] = EDO80: EDO-S101 80 mg/kg, day 32 from tumour inoculum
[17] = EDO80: EDO-S101 80 mg/kg, day 35 from tumour inoculum
[18] = EDO80: EDO-S101 80 mg/kg, day 38 from tumour inoculum
[19] = EDO80: EDO-S101 80 mg/kg, day 42 from tumour inoculum
[20] = EDO80: EDO-S101 80 mg/kg, day 46 from tumour inoculum
[21] = EDO80: EDO-S101 80 mg/kg, day 49 from tumour inoculum

Structure (SMILES): Cn1c(CCCCCCC(=O)NO)nc2cc(N(CCCl)CCCl)ccc21 [EDO-S101, 7-(5-(bis(2-chloroethyl)amino)-1-methyl-1H-benzo[d]imidazol-2-yl)-N-hydroxyheptanamide]
- Mouse body weight, group Mean [1]: 25.1 g
- BWL % [1]: −8.9%
- Mouse body weight, group Mean [2]: 25.4 g
- BWL % [2]: −8.1%
- Mouse body weight, group Mean [3]: 26.7 g
- BWL % [3]: −3.1%
- Mouse body weight, group Mean [4]: 28.1 g
- BWL % [4]: 2.0%
- Mouse body weight, group Mean [5]: 27.9 g
- Mouse body weight, individual mice [5]: 28.4 g and 25.3 g and 26.1 g and 26.6 g and 28.5 g and 27.5 g and 32 g and 28.7 g
- BWL % [5]: 0.0%
- Mouse body weight, group Mean [6]: 25.3 g
- Mouse body weight, individual mice [6]: 25.1 g and 22.8 g and 24 g and 24.8 g and 26.8 g and 24.4 g and 28.6 g and 25.5 g
- BWL % [6]: −9.5%
- Mouse body weight, group Mean [7]: 24.8 g
- Mouse body weight, individual mice [7]: 24.9 g and 22.6 g and 23.5 g and 24.7 g and 26 g and 24.4 g and 27.9 g and 24.3 g
- BWL % [7]: −11.1%
- Mouse body weight, group Mean [8]: 22.5 g
- Mouse body weight, individual mice [8]: 21.8 g and 19.4 g and 22.4 g and 23.5 g and 23.2 g (2×) and 23.8 g and 22.7 g
- BWL % [8]: −19.3%
- Mouse body weight, group Mean [9]: 23.9 g
- Mouse body weight, individual mice [9]: 23.3 g and 19.7 g and 24.2 g and 25.1 g and 24.8 g and 24.4 g and 26.9 g and 22.9 g
- BWL % [9]: −14.3%
- Mouse body weight, group Mean [10]: 25.2 g
- Mouse body weight, individual mice [10]: 24.1 g and 22.2 g and 24.8 g and 26 g and 27 g and 26.1 g and 28 g
- BWL % [10]: −9.6%
- Mouse body weight, group Mean [11]: 26.2 g
- Mouse body weight, individual mice [11]: 25.7 g and 22.6 g and 26.5 g and 26.2 g and 27.4 g and 26.3 g and 29.6 g and 25.2 g
- BWL % [11]: −6.1%
- Mouse body weight, group Mean [12]: 26.6 g
- Mouse body weight, individual mice [12]: 26.1 g and 23.8 g and 26.6 g (3×) and 27.9 g and 30.1 g and 25.2 g
- BWL % [12]: −4.6%
- Mouse body weight, group Mean [13]: 27.8 g
- Mouse body weight, individual mice [13]: 27 g and 25.1 g and 27.9 g and 27.7 g and 28.8 g
- BWL % [13]: −0.4%
- Mouse body weight, group Mean [14]: 28.9 g
- Mouse body weight, individual mice [14]: 27.9 g and 25.4 g and 28.7 g and 28.1 g
- BWL % [14]: 3.6%
- Mouse body weight, group Mean [15]: 28.5 g
- Mouse body weight, individual mice [15]: 28.2 g and 25.3 g and 27.3 g and 27.9 g
- BWL % [15]: 2.1%
- Mouse body weight, group Mean [16]: 28.0 g
- Mouse body weight, individual mice [16]: 27.4 g (2×) and 24.9 g and 26.6 g
- BWL % [16]: 0.4%
- Mouse body weight, group Mean [17]: 25.1 g
- Mouse body weight, individual mice [17]: 24.4 g and 21.9 g and 24.8 g and 26.1 g
- BWL % [17]: −9.9%
- Mouse body weight, group Mean [18]: 25.0 g
- Mouse body weight, individual mice [18]: 24.4 g and 21.8 g and 25.1 g and 25.3 g
- BWL % [18]: −10.4%
- Mouse body weight, group Mean [19]: 27.1 g
- Mouse body weight, individual mice [19]: 26.3 g and 23.1 g and 27 g and 28 g
- BWL % [19]: −2.9%
- Mouse body weight, group Mean [20]: 28.8 g
- Mouse body weight, individual mice [20]: 28.6 g and 25.3 g and 28.3 g and 30 g
- BWL % [20]: 3.1%
- Mouse body weight, group Mean [21]: 30.2 g
- Mouse body weight, individual mice [21]: 29.8 g and 26 g and 30 g and 32.3 g
- BWL % [21]: 8.2%
- BWL during second cycle (all dose regimens): < 9%
